Assay results as given in ChEMBL document CHEMBL1158999, “Biologically active gamma-lactones and methylketoalkenes from Lindera benzoin” (J Nat Prod, 1992).
Values after ≈ are worked out from the molar mass of the structure shown.

Columns and labels:
Artemia salina = assay: Toxicity in Artemia salina; assay type: organism-based; conditions: in vivo
A549 = assay: Cytotoxicity against human A549 cells; assay type: functional; conditions: read-out: ED50 (the source's name)
HT-29 = assay: Cytotoxicity against human HT-29 cells; assay type: functional; conditions: read-out: ED50 (the source's name)
MCF7 = assay: Cytotoxicity against human MCF7 cells; assay type: functional; conditions: read-out: ED50 (the source's name)
[1] = tested on: Agrobacterium tumefaciens; assay: Antitumor activity against Agrobacterium tumefaciens-induced crown gall tumor in potato tubers at by potato disk assay; assay type: functional
[2] = tested on: Diabrotica undecimpunctata; assay: Insecticidal activity against Diabrotica undecimpunctata assessed as mortality at 12 ppm; assay type: functional
Spodoptera eridania = assay: Insecticidal activity against Spodoptera eridania assessed as mortality at 12 ppm; assay type: functional
Tetranychus urticae = assay: Insecticidal activity against Tetranychus urticae assessed as mortality at 12 ppm; assay type: functional
Aphis gossypii = assay: Insecticidal activity against Aphis gossypii assessed as mortality at 12 ppm; assay type: functional

Structure (SMILES)	LC50 (Artemia salina) [ppm]	EC50 (A549) [µg/mL]	EC50 (HT-29) [µg/mL]	EC50 (MCF7) [µg/mL]	inhibition (INH) [1] [%]	Activity [2] [%]	Activity (Spodoptera eridania) [%]	Activity (Tetranychus urticae) [%]	Activity (Aphis gossypii) [%]
CCCCC/C=C\C/C=C\CCCC(C)=O	2.9	> 10	> 10	> 10					
CC/C=C\C/C=C\C/C=C\CCCC(C)=O	3	> 10	3.01 (≈ 13.7 µM)	5.15 (≈ 23.4 µM)					
C=C[C@](C)(O)CC/C=C(/C)CCC=C(C)C	5.75	> 10	> 10	> 10					
COc1cccc2c1C(=O)c1c(O)c3c(c(O)c1C2=O)C[C@@](O)(C(=O)CO)C[C@@H]3O[C@H]1C[C@H](N)[C@H](O)[C@H](C)O1 [DOXORUBICIN]	0.088	0.0018 (≈ 0.00331 µM)	0.012 (≈ 0.0221 µM)	0.051 (≈ 0.0938 µM)					
C=C1OC(=O)/C(=C/CCCCCCCCCCCCCCC)[C@@H]1O [ISOLINDERANOLIDE]	0.96	4.57 (≈ 13.6 µM)	3.07 (≈ 9.12 µM)	3.12 (≈ 9.27 µM)	44.9	20	0	0	0
C=C1OC(=O)/C(=C/CCCC/C=C\CCCCCCCCC)[C@@H]1O [ISOLINDERENOLIDE]	0.52	3.01 (≈ 9 µM)	1.9 (≈ 5.68 µM)	2.58 (≈ 7.71 µM)	41.4	0	0	0	0
C=C1OC(=O)/C(=C/CCCCCCCCCCCCC)[C@@H]1O [ISOOBTUSILACTONE A]	0.72	3.75 (≈ 12.2 µM)	2.48 (≈ 8.04 µM)	2.31 (≈ 7.49 µM)		0	0	0	0
C=CCCCCCCCCC/C=C1/C(=O)OC(=C)[C@H]1O [ISOOBUTASILACTONE]	0.065	> 10	2.92 (≈ 10.5 µM)	4.6 (≈ 16.5 µM)		0	0	0	0
C=C1OC(=O)/C(=C\CCCCCCCCCCCCCCC)[C@@H]1O [LINDERANOLIDE]	5.23	0.928 (≈ 2.76 µM)	30.5 (≈ 90.6 µM)	73.6 (≈ 219 µM)					
C=C1OC(=O)/C(=C\CCCCCCCCCCCCC)[C@@H]1O [OBTUSILACTONE A]	0.89	> 10	2.93 (≈ 9.5 µM)	5.12 (≈ 16.6 µM)		0	0	0	0
C=CCCCCCCCCC/C=C1\C(=O)OC(=C)[C@H]1O [OBTUSILACTONE]	0.035	3.32 (≈ 11.9 µM)	3.26 (≈ 11.7 µM)	4.58 (≈ 16.5 µM)	64.2	0	0	0	0
